US7846939B2, “Salts and mixture of 9-oxoacridine-10-acetic acid with 1-alkylamino-1-desoxy-polyols, pharmaceutical compositions containing said agents and treatment methods” (priority 2005, dated 2010)

Tested on: Chlamydia
Experiment: Chronic inflammatory diseases of uterus and appendages, 250 mg i.m., 10 injections, with BAT (ofloxacin)
Type: in vivo, human

**Q.** With `CC1COc2c(N3CCN(C)CC3)c(F)cc3c(=O)c(C(=O)O)cn1c23` (stereo not drawn) [Basic antibacterial therapy, BAT, ofloxacin] as the compound, how does the “Alpha-interferon, produced by the peripheral blood leukocytes, induced in culture by the Newcastle disease virus, mean” value (After treatment) read?
**A.** 5.3 log2 IU/ml

**Q.** And the “Amount of cytoplasmic granules in peripheral blood PNLs, mean” value (After treatment)?
**A.** 10.2

**Q.** What about the “Gamma-interferon, produced by the peripheral blood leukocytes, induced in culture by staphylococcus enterotoxin A, mean” value (After treatment) of the same compound?
**A.** 4.7 log2 IU/ml

**Q.** And the “Serum interferon, mean” value (After treatment)?
**A.** 0.8 log2 IU/ml

**Q.** What about the “Alpha-interferon, produced by the peripheral blood leukocytes, induced in culture by the Newcastle disease virus, mean” value (Before treatment) of the same compound?
**A.** 5.1 log2 IU/ml

**Q.** What about the “Amount of cytoplasmic granules in peripheral blood PNLs, mean” value (Before treatment) of the same compound?
**A.** 8.5

**Q.** What about the “Gamma-interferon, produced by the peripheral blood leukocytes, induced in culture by staphylococcus enterotoxin A, mean” value (Before treatment) of the same compound?
**A.** 4.7 log2 IU/ml

**Q.** And the “Serum interferon, mean” value (Before treatment)?
**A.** 0.2 log2 IU/ml

**Q.** What about the Etiological recovery (PCR control) of the same compound?
**A.** 69%
